Experimental data from ChEMBL document CHEMBL3045974, “Global antifungal profile optimization of chlorophenyl derivatives against Botrytis cinerea and Colletotrichum gloeosporioides” (2009).

Assays:
Type in all cases: functional
Botrytis cinerea [1] = assay: Antifungal activity against Botryotinia fuckeliana 2100 assessed as inhibition of radial growth at 50 ug/mL at 25 degC measured after 5 days; settings: Botrytis cinerea, 2100, 120 h; read-out: GI
Botrytis cinerea [2] = assay: Antifungal activity against Botryotinia fuckeliana 2100 assessed as inhibition of radial growth at 100 ug/mL at 25 degC measured after 5 days; settings: Botrytis cinerea, 2100, 120 h; read-out: GI
Botrytis cinerea [3] = assay: Antifungal activity against Botryotinia fuckeliana 2100 assessed as inhibition of radial growth at 150 ug/mL at 25 degC measured after 5 days; settings: Botrytis cinerea, 2100, 120 h; read-out: GI
[4] = system: Colletotrichum gloeosporioides; assay: Antifungal activity against Colletotrichum gloeosporioides 20122-CECT assessed as inhibition of radial growth at 50 ug/mL at 25 degC measured after 4 days; settings: 96 h, read-out: GI
[5] = system: Colletotrichum gloeosporioides; assay: Antifungal activity against Colletotrichum gloeosporioides 20122-CECT assessed as inhibition of radial growth at 100 ug/mL at 25 degC measured after 4 days; settings: 96 h, read-out: GI
[6] = system: Colletotrichum gloeosporioides; assay: Antifungal activity against Colletotrichum gloeosporioides 20122-CECT assessed as inhibition of radial growth at 150 ug/mL at 25 degC measured after 4 days; settings: 96 h, read-out: GI
[7] = system: Colletotrichum gloeosporioides; assay: Antifungal activity against Colletotrichum gloeosporioides 20122-CECT assessed as inhibition of radial growth at 50 ug/mL at 25 degC measured after 5 days; settings: 120 h, read-out: GI
[8] = system: Colletotrichum gloeosporioides; assay: Antifungal activity against Colletotrichum gloeosporioides 20122-CECT assessed as inhibition of radial growth at 100 ug/mL at 25 degC measured after 5 days; settings: 120 h, read-out: GI
[9] = system: Colletotrichum gloeosporioides; assay: Antifungal activity against Colletotrichum gloeosporioides 20122-CECT assessed as inhibition of radial growth at 150 ug/mL at 25 degC measured after 5 days; settings: 120 h, read-out: GI
Botrytis cinerea [10] = assay: Antifungal activity against Botryotinia fuckeliana 2100 assessed as inhibition of radial growth at 150 ug/mL at 25 degC measured after 4 days; settings: Botrytis cinerea, 2100, 96 h; read-out: GI

| SMILES | inhibition of growth at 50 µg/mL (Botrytis cinerea [1]) | inhibition of growth at 100 µg/mL (Botrytis cinerea [2]) | inhibition of growth at 150 µg/mL (Botrytis cinerea [3]) | inhibition of growth at 50 µg/mL [4] | inhibition of growth at 100 µg/mL [5] | inhibition of growth at 150 µg/mL [6] | inhibition of growth at 50 µg/mL [7] | inhibition of growth at 100 µg/mL [8] | inhibition of growth at 150 µg/mL [9] | inhibition of growth at 150 µg/mL (Botrytis cinerea [10]) |
| --- | --- | --- | --- | --- | --- | --- | --- | --- | --- | --- |
| O=C(Cc1ccccc1)c1ccc(Cl)cc1 | 31% | 33% | 38% | 9% | 13% | 17% | – | – | – | – |
| CCC(=O)c1ccc(Cl)cc1 | 28% | 51% | 91% | – | – | – | 28% | 29% | 36% | – |
| O[C@@H](c1ccccc1)c1ccc(Cl)cc1 | 91% | 100% | 100% | – | – | – | 66% | 85% | 96% | – |
| O[C@H](c1ccccc1)c1ccc(Cl)cc1 | 99% | 100% | 100% | – | – | – | 73% | 94% | 100% | – |
| Clc1ccc(/C=C/c2ccccc2)cc1 | – | – | – | – | – | – | 0% | 0% | 0% | 19% |
| Clc1ccc(C2OC2c2ccccc2)cc1 (stereo not drawn) | – | – | 28% | – | – | – | 0% | 0% | 0% | – |
| O[C@H](c1ccccc1)[C@H](O)c1ccc(Cl)cc1 | 32% | 59% | 62% | – | – | – | 22% | 42% | 51% | – |
| O[C@@H](c1ccccc1)[C@@H](O)c1ccc(Cl)cc1 | 33% | 63% | 68% | – | – | – | 27% | 52% | 62% | – |
| O[C@@H](c1ccc(Cl)cc1)C1CC1 | 77% | 100% | 100% | – | – | – | 25% | 40% | 52% | – |
| O[C@H](c1ccc(Cl)cc1)C1CC1 | 63% | 80% | 97% | 20% | 23% | 27% | – | – | – | – |
| CC[C@H](O)c1ccc(Cl)cc1 | 62% | 73% | 92% | – | – | – | 28% | 29% | 33% | – |
| CC[C@@H](O)c1ccc(Cl)cc1 | 74% | 82% | 98% | – | – | – | 28% | 39% | 59% | – |
| CC[C@@H](OC(C)=O)c1ccc(Cl)cc1 | 12% | 40% | 44% | – | – | – | 0% | 0% | 0% | – |
| CCC(=O)c1cccc(Cl)c1 | 26% | 49% | 91% | – | – | – | 22% | 28% | 42% | – |
| CC[C@H](O)c1cccc(Cl)c1 | 64% | 71% | 82% | – | – | – | 32% | 37% | 49% | – |
| CC[C@@H](O)c1cccc(Cl)c1 | 72% | 80% | 86% | – | – | – | 34% | 60% | 65% | – |
| CC[C@@H](OC(C)=O)c1cccc(Cl)c1 | 22% | 29% | 30% | – | – | – | 0% | 0% | 0% | – |
| OC(c1ccccc1)c1ccc(Cl)cc1 (racemic) | 95% | 100% | 100% | – | – | – | 63% | 87% | 94% | – |
| OC(c1ccc(Cl)cc1)C1CC1 (racemic) | 74% | 100% | 100% | – | – | – | 31% | 53% | 80% | – |
| CCC(O)c1ccc(Cl)cc1 (racemic) | 61% | 77% | 95% | – | – | – | 28% | 41% | 51% | – |
| CCC(O)c1cccc(Cl)c1 (racemic) | 67% | 77% | 83% | – | – | – | 31% | 60% | 62% | – |
| O=C(c1ccc(Cl)cc1)C1CC1 [(4-CHLOROPHENYL)(CYCLOPROPYL)METHANONE] | 88% | 99% | 100% | – | – | – | 21% | 63% | 86% | – |
